Assay results taken from publication PMC11500415, “Chemical inhibition of stomatal differentiation by perturbation of the master-regulatory bHLH heterodimer via an ACT-Like domain” (Nature Communications, 2024).
Where “and” joins values, the source holds several entries; their conditions need not be identical. Equal values may be shown once. Read-outs that look alike come from different tables or passages of the source.

Molecular target: T1, MUTE_ACTL (Arabidopsis thaliana, UniProt Q9M8K6)
T1 construct: MUTE-ACTL (114-202); made in house; host or cells: E. coli BL21
T1 sequence (Q9M8K6 114-202): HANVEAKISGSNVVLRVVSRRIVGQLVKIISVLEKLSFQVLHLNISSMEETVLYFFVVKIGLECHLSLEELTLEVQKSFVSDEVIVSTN
Assay: BLI direct binding
Parameters: species or system A. thaliana
Description: A. thaliana SCRM (1-494), ΔNSPCH (98-364), MUTE (1-202), ΔNFAMA (190-414), MUTEΔC (1-114), MUTER133A_R134A, MUTEE162A_E163A, MUTER133A_R134A_E162A_E163A, SCRM-ACTL (405-494), MUTE-ACTL (114-202), SPCH-ACTL (285-364), FAMA-ACTL (306-414), MUTE_ACTLR133A_R134A, MUTE_ACTLE162A_E163A, MUTE_ACTLR133A_R134A_E162A_E163A were cloned into pGEX-4T-1 vector with an N-terminal GST tag and a thrombin cleavage sequence. For protein expression, the constructs were transformed into E. coli strain BL21. For each transformant, a single colony was selected and incubated in 10 ml LB liquid media. The overnight-incubated E. coli suspensions were transferred to 1 L LB medium and incubated at 37 °C for around 2 h until the OD600 reached 0.4–0.6. The isopropyl β-D-1-thiogalactopyranoside ([…] of final concentration) was added to the cultures and the strains were incubated at 22 °C for a further 18 h. GST-fused proteins were purified using glutathione agarose resin. The soluble portion of the cell lysate was loaded onto a GST-Sepharose column. Nonspecifically bound proteins were removed by washing the column with 20 mM Tris pH 8.0, 200 mM NaCl. The bound GST-fused protein was eluted with 10 mm glutathione and 20 mM Tris pH 8.0, 200 mM NaCl. The GST-fused proteins were exchanged with phosphate-buffered saline buffer, and then the solution was treated with 50 μg of thrombin for 10–12 h at 16 ^οC. The GST portion of the protein was cleaved during thrombin digestion, and then the whole solution was reloaded onto the glutathione S-transferase column to obtain pure protein. The purified proteins were further purified by gel filtration on a Superdex-200 (GE) column using fast protein liquid chromatography and phosphate buffer (pH 7.2) as the eluent. The purity of the protein was checked by SDS-PAGE. For detailed lists of oligo DNA and plasmid information, see Supplementary Tables 5, 6, respectively.
The binding affinities of SCRM to MUTE / MUTER133A_R134A / MUTEE162A_E163A / MUTER133A_R134A_E162A_E163A in presence and absence of Stomidazolone (3) and its analogues (AYSJ1059 (5) and AYSJ1061 (6)), and Stomidazolone / AYSJ1059 / AYSJ1061 interactions with GST-tagged SCRM, MUTE, SPCH, FAMA, MUTE ΔACTL, MUTE_ACTL, SCRM_ACTL, SPCH_ACTL and FAMA_ACTL, MUTER133A_134A, MUTEE162A_E163A, MUTER133A_R134A_E162A_E163A were measured using the Octet Red96 system (ForteBio, Pall Life Sciences) following the manufacturer’s protocols. The optical probes coated with anti-GST were first loaded with 500 nM GST tagged proteins before kinetic binding analyses. The experiment was performed in 96-well plates maintained at 30 °C. Each well was loaded with 200 μL reaction volume for the experiment. The binding buffer used in these experiments contained 1× PBS supplemented with 2% DMSO, 0.02% Tween20. […] There was no binding of the analytes to the unloaded probes as shown by the control wells. Binding kinetics to all seven concentrations of the analytes were measured simultaneously using default parameters on the instrument. The data were analyzed using the Octet data analysis software. The association and dissociation curves were fit with the 1:1 homogeneous ligand model. The kobs (observed rate constant) values were used to calculate Kd, with steady-state analysis of the direct binding. See Supplementary Table 3 for details.

[1] = MUTE_ACTL on Anti-GST sensor, Stomid 3.12 µM, rep-1, rep-2
[2] = MUTE_ACTL on Anti-GST sensor, Stomid 6.25 µM, rep-1, rep-2
[3] = MUTE_ACTL on Anti-GST sensor, Stomid 12.5 µM, rep-1, rep-2
[4] = MUTE_ACTL on Anti-GST sensor, Stomid 25 µM, rep-1, rep-2
[5] = MUTE_ACTL on Anti-GST sensor, Stomid 50 µM, rep-1, rep-2
[6] = MUTE_ACTL on Anti-GST sensor, Stomid 100 µM, rep-1, rep-2
[7] = MUTE_ACTL on Anti-GST sensor, Stomid 200 µM, rep-1, rep-2

O=C1C(c2ccccc2)=NC(NS(=O)(=O)c2ccccc2)(c2ccccc2)N1S(=O)(=O)c1ccccc1 (centres unmarked) [Stomidazolone]
Kd (BLI steady state, MUTE_ACTL, read-out: KD (SS)): 13.1 ± 1.3 µM
Response (BLI, GST-MUTE_ACTL on Anti-GST sensor, Stomid 3.12 µM): 0.126 and 0.163
Response (BLI, GST-MUTE_ACTL on Anti-GST sensor, Stomid 6.25 µM): 0.271 and 0.242
Response (BLI, GST-MUTE_ACTL on Anti-GST sensor, Stomid 12.5 µM): 0.425 and 0.391
Response (BLI, GST-MUTE_ACTL on Anti-GST sensor, Stomid 25 µM): 0.524 and 0.486
Response (BLI, GST-MUTE_ACTL on Anti-GST sensor, Stomid 50 µM): 0.535 and 0.563
Response (BLI, GST-MUTE_ACTL on Anti-GST sensor, Stomid 100 µM): 0.611 and 0.632
Response (BLI, GST-MUTE_ACTL on Anti-GST sensor, Stomid 200 µM): 0.625 and 0.645
RMax (BLI, sensor at Stomid 3.12 µM): 0.132 and 0.165
Kd (BLI, sensor at Stomid 3.12 µM, read-out: KD): 11.7 µM
RMax (BLI, sensor at Stomid 6.25 µM): 0.28 and 0.245
kobs (BLI, sensor at Stomid 6.25 µM): 0.00155 s⁻¹ and 0.00133 s⁻¹
kon (BLI, sensor at Stomid 6.25 µM): 4070 M⁻¹ s⁻¹
Kd (BLI, sensor at Stomid 6.25 µM, read-out: KD): 11.9 µM
RMax (BLI, sensor at Stomid 12.5 µM): 0.435 and 0.4
Req/Rmax(%) (BLI, sensor at Stomid 12.5 µM): 49% and 87.1%
kdis (BLI, sensor at Stomid 12.5 µM): 0.0482 s⁻¹
kon (BLI, sensor at Stomid 12.5 µM): 4050 M⁻¹ s⁻¹
Kd (BLI, sensor at Stomid 12.5 µM, read-out: KD): 11.9 µM
RMax (BLI, sensor at Stomid 25 µM): 0.53 and 0.49
Req/Rmax(%) (BLI, sensor at Stomid 25 µM): 61.4% and 83.8%
kdis (BLI, sensor at Stomid 25 µM): 0.0488 s⁻¹
kobs (BLI, sensor at Stomid 25 µM): 0.00162 s⁻¹ and 0.00294 s⁻¹
kon (BLI, sensor at Stomid 25 µM): 4070 M⁻¹ s⁻¹
Kd (BLI, sensor at Stomid 25 µM, read-out: KD): 11.8 µM and 12 µM
RMax (BLI, sensor at Stomid 50 µM): 0.545 and 0.565
Req/Rmax(%) (BLI, sensor at Stomid 50 µM): 71.3%
kdis (BLI, sensor at Stomid 50 µM): 0.0473 s⁻¹
kon (BLI, sensor at Stomid 50 µM): 4010 M⁻¹ s⁻¹
Kd (BLI, sensor at Stomid 50 µM, read-out: KD): 11.9 µM and 11.8 µM
RMax (BLI, sensor at Stomid 100 µM): 0.621 and 0.64
Req/Rmax(%) (BLI, sensor at Stomid 100 µM): 98.7%
kdis (BLI, sensor at Stomid 100 µM): 0.0476 s⁻¹
kon (BLI, sensor at Stomid 100 µM): 4080 M⁻¹ s⁻¹
Kd (BLI, sensor at Stomid 100 µM, read-out: KD): 12.1 µM and 11.7 µM
RMax (BLI, sensor at Stomid 200 µM): 0.63 and 0.655
Req/Rmax(%) (BLI, sensor at Stomid 200 µM): 100%
kdis (BLI, sensor at Stomid 200 µM): 0.0474 s⁻¹
kobs (BLI, sensor at Stomid 200 µM): 0.0329 s⁻¹ and 0.0251 s⁻¹
kon (BLI, sensor at Stomid 200 µM): 4070 M⁻¹ s⁻¹
Kd (BLI, sensor at Stomid 200 µM, read-out: KD): 12 µM and 11.6 µM
Kd (BLI, MUTE_ACTL, read-out: KD): 12.2 ± 2.1 µM
RMax [1]: 0.132 and 0.165
Response [1]: 0.126 and 0.163
Kd (MUTE_ACTL on Anti-GST sensor, Stomid 3.12 µM, rep-1, rep-2, read-out: KD): 11.7 µM
RMax [2]: 0.28 and 0.245
Response [2]: 0.271 and 0.242
kobs [2]: 0.00155 s⁻¹ and 0.00133 s⁻¹
kon [2]: 4070 M⁻¹ s⁻¹
Kd (MUTE_ACTL on Anti-GST sensor, Stomid 6.25 µM, rep-1, rep-2, read-out: KD): 11.9 µM
RMax [3]: 0.4 and 0.435
Req/Rmax(%) [3]: 87.1% and 49%
Response [3]: 0.391 and 0.425
kon [3]: 4070 M⁻¹ s⁻¹
Kd (MUTE_ACTL on Anti-GST sensor, Stomid 12.5 µM, rep-1, rep-2, read-out: KD): 11.9 µM
RMax [4]: 0.49 and 0.53
Req/Rmax(%) [4]: 83.8% and 61.4%
Response [4]: 0.486 and 0.524
kobs [4]: 0.00294 s⁻¹ and 0.00162 s⁻¹
kon [4]: 4080 M⁻¹ s⁻¹
Kd (MUTE_ACTL on Anti-GST sensor, Stomid 25 µM, rep-1, rep-2, read-out: KD): 12 µM and 11.8 µM
RMax [5]: 0.545 and 0.565
Req/Rmax(%) [5]: 71.3%
Response [5]: 0.535 and 0.563
Kd (MUTE_ACTL on Anti-GST sensor, Stomid 50 µM, rep-1, rep-2, read-out: KD): 11.9 µM and 11.8 µM
RMax [6]: 0.621 and 0.64
Req/Rmax(%) [6]: 98.7%
Response [6]: 0.611 and 0.632
Kd (MUTE_ACTL on Anti-GST sensor, Stomid 100 µM, rep-1, rep-2, read-out: KD): 11.7 µM
RMax [7]: 0.63 and 0.655
Req/Rmax(%) [7]: 100%
Response [7]: 0.625 and 0.645
kobs [7]: 0.0329 s⁻¹ and 0.0251 s⁻¹
Kd (MUTE_ACTL on Anti-GST sensor, Stomid 200 µM, rep-1, rep-2, read-out: KD): 12 µM
koff (read-out: kdis(1/s), BLI, sensor at Stomid 3.12 µM): 0.0481 s⁻¹
koff (read-out: kdis(1/s), BLI, sensor at Stomid 6.25 µM): 0.0483 s⁻¹
koff (read-out: kdis(1/s), BLI, sensor at Stomid 12.5 µM): 0.0485 s⁻¹
koff (read-out: kdis(1/s), BLI, sensor at Stomid 25 µM): 0.0483 s⁻¹
koff (read-out: kdis(1/s), BLI, sensor at Stomid 50 µM): 0.0485 s⁻¹
koff (read-out: kdis(1/s), BLI, sensor at Stomid 100 µM): 0.0491 s⁻¹
koff (read-out: kdis(1/s), BLI, sensor at Stomid 200 µM): 0.0486 s⁻¹
koff (read-out: kdis(1/s), MUTE_ACTL on Anti-GST sensor, Stomid 6.25 µM, rep-1, rep-2): 0.0483 s⁻¹
koff (read-out: kdis(1/s), MUTE_ACTL on Anti-GST sensor, Stomid 12.5 µM, rep-1, rep-2): 0.0485 s⁻¹
koff (read-out: kdis(1/s), MUTE_ACTL on Anti-GST sensor, Stomid 25 µM, rep-1, rep-2): 0.0483 s⁻¹
koff (read-out: kdis(1/s), MUTE_ACTL on Anti-GST sensor, Stomid 50 µM, rep-1, rep-2): 0.0485 s⁻¹
kon (read-out: kon(1/Ms), BLI, sensor at Stomid 3.12 µM): 4110 M⁻¹ s⁻¹
kon (read-out: kon(1/Ms), BLI, sensor at Stomid 6.25 µM): 4050 M⁻¹ s⁻¹
kon (read-out: kon(1/Ms), BLI, sensor at Stomid 12.5 µM): 4070 M⁻¹ s⁻¹
kon (read-out: kon(1/Ms), BLI, sensor at Stomid 25 µM): 4080 M⁻¹ s⁻¹
kon (read-out: kon(1/Ms), BLI, sensor at Stomid 50 µM): 4070 M⁻¹ s⁻¹
kon (read-out: kon(1/Ms), BLI, sensor at Stomid 100 µM): 4060 M⁻¹ s⁻¹
kon (read-out: kon(1/Ms), BLI, sensor at Stomid 200 µM): 4040 M⁻¹ s⁻¹
kon (read-out: kon(1/Ms), MUTE_ACTL on Anti-GST sensor, Stomid 6.25 µM, rep-1, rep-2): 4050 M⁻¹ s⁻¹
kon (read-out: kon(1/Ms), MUTE_ACTL on Anti-GST sensor, Stomid 12.5 µM, rep-1, rep-2): 4050 M⁻¹ s⁻¹
kon (read-out: kon(1/Ms), MUTE_ACTL on Anti-GST sensor, Stomid 25 µM, rep-1, rep-2): 4070 M⁻¹ s⁻¹
kon (read-out: kon(1/Ms), MUTE_ACTL on Anti-GST sensor, Stomid 50 µM, rep-1, rep-2): 4070 M⁻¹ s⁻¹
kon (read-out: kon(1/Ms), MUTE_ACTL on Anti-GST sensor, Stomid 100 µM, rep-1, rep-2): 4080 M⁻¹ s⁻¹
kon (read-out: kon(1/Ms), MUTE_ACTL on Anti-GST sensor, Stomid 200 µM, rep-1, rep-2): 4070 M⁻¹ s⁻¹
